In patent US20260207551A1, “PHOSPHOGLICERATE DEHYDROGENASE INHIBITORS FOR THE TREATMENT OF FIBROSIS” (CHIESI FARMACEUTICI S.P.A., priority 2022, published 2026):

Tests used:
[1] = tested on: αSMA; assay: Phenotypic assay: high content aSMA staining in NHLF cells; type: cell-based, Human; conditions: for IC50: Homo sapiens, SMA, 72 h, read-out: aSMA pIC50 (converted)
Description: NHLF cells (Lonza #CC2512) were seeded as 2000 cells/well in 384-well plates in MEM medium w/o serine and glycine (Sigma #M2279)+1% pen/strep+5 mM L-glutamine +10% FBS and incubated overnight at 37° C., 5% CO2.
The next day, cells were washed with PBS and starvation MEM medium w/o serine and glycine (0% FBS) was added and cells were incubated overnight at 37° C., 5% CO2. The day after, cells were pre-incubated with compounds or vehicle (0.3% DMSO) for 1 h. Compounds were tested at 9 consecutive 3-fold dilutions starting from 30 μM. Each compound was tested in duplicate. Cells were further incubated for 72 h at 37° C., 5% CO2, 95% humidity. After 72 h of incubation, αSMA expression was quantified using immunostaining: • Fixation in 4% paraformaldehyde, • Blocking with 3% BSA, 2% FBS, 0.2% Triton-X in PBS, • Primary ab. anti-αSMA (AbCam #ab7817) diluted 500× in blocking buffer • Anti-mouse secondary ab. AF488 (ThermoFisher #A11029) • % of αSMA positive cells was determined by High Content Imaging (Molecular Device), data analysis was performed using MetaXpress software (Molecular Devices) and % of αSMA positive was further used to calculate % of inhibition for tested compounds. Total cell number was determined by Hoechst staining and % of viability over TGFβ stimulated controls was calculated.

[2] = tested on: bleomycin-induced pulmonary fibrosis; assay: Bleomycin-induced pulmonary fibrosis in male mice (Example 6); type: in vivo, Male C57BL6/J mice; conditions: Nintedanib esylate 50 mg/Kg bid
Description: The effect of Compound 19a was evaluated in a murine model (C57BL/6J mouse strain) in which fibrosis was induced by a double oropharyngeal (OA) instillation of bleomycin. The Compound 19a was administered under therapeutic regimen for 14 days, starting the treatments at day 7 from the first instillation of Bleomycin OA up to the day 21, considered the endpoint for this model.
All mice were maintained under pathogen-free conditions and had free access to food and water.
Lung injury was induced by double OA instillation of bleomycin hydrochloride (BLM, BAXTER, Deerfield, IL, USA) at day 0 and day 4 at the dose of 0.03 U/mouse in […] of saline solution (NaCl 0.9%). Control animals received double OA instillation of […] of saline solution.
The Compound 19a was orally administered twice daily at the three doses of 3, 30 and 100 mg/Kg 10 mL/Kg, using as vehicle for dissolution the 0.5% Tween 80, 0.5% Methylcellulose in H2O.
On day 21, the respiratory system mechanics were measured using the FlexiVent System (SCIREQ Inc., Montreal Qc, Canada) (Vanoirbeek et al., 2010).
Briefly, mice were anesthetized by intraperitoneal injection of ketamine (Anesketin®, Dechra Inc., Handelsweg, NL) and xylazine (Xilagesic®, Calier Inc., Barcelona, ES) solution (100 mg/Kg and 10 mg/Kg, respectively). Once anesthesia was achieved, to analyze forced vital capacity (FVC), anesthetized mice were tracheotomized using an 18-gauge metal cannula, connected via an endotracheal cannula to the FlexiVent and ventilated at a respiratory rate of 150 breaths/min and tidal volume of 10 mL/Kg against a positive end-expiratory pressure of 3 cm H2O to achieve a mean lung volume close to that during spontaneous breathing. To prevent spontaneous breathing mice also received pancuronium bromide at 1 mg/Kg intraperitoneally. FlexiVent software version 8.1 was used to perform the perturbations.
Immediately after the in-life evaluation, plasma and bronchoalveolar lavage fluid (BALF) samples were collected.
First, blood was collected by cardiac puncture, and plasma was obtained after centrifugation of blood at 2000×g and 4° C. for 10 minutes.
Subsequently, the lungs were gently rinsed three times using a tracheal cannula with 0.6 mL of clear BAL solution. The obtained BALF was centrifuged at 1000×g and 4° C. for 10 minutes. The cell-free supernatant was used for biomarkers quantitative determination.
The following biomarkers were determined in BALF and plasma samples by commercially available ELISA kits: Collagen I (evaluated in BALF), an index of collagen accumulation; matrix metallopeptidase 7 (MMP-7, evaluated in BALF), indicator of aberrant fibrogenesis and ECM remodeling and surfactant protein D (SP-D, evaluated in PLASMA), marker of alveolar epithelial cell damage and dysfunction.
Lastly, the entire lungs were resected, fixed with formalin and embedded in paraffin. Sections were stained with Masson's trichrome to assess the grade and severity of fibrosis and collagen deposition.

[3] = tested on: bleomycin-induced pulmonary fibrosis; assay: Bleomycin-induced pulmonary fibrosis in male mice (Comparative Example 7); type: in vivo; conditions: for lung/body weight: NCT-503 100 mg/kg/day, Nintedanib esylate 60 mg/Kg/day
Description: The allosteric inhibitor NCT-503 has accordingly been assessed in the same murine model of Compound 19. Comparative Example 7 was carried out under the same experimental conditions of Example 5.
The treatment was stopped at day 10, after 4 days of treatment with NCT-503 600 mg/kg/day. After two days wash-out, the treatment re-started with a once daily regimen at the final dose of […].
The final dose was of 100 mg/kg/day.

[4] = tested on: bleomycin-induced pulmonary fibrosis; assay: Bleomycin-induced pulmonary fibrosis in male mice (Example 5)
Description: Male C57BL6/J mice (7-8 weeks old) were purchased from the Envigo RMS (San Pietro al Natisone (UD), Italy). All mice were maintained under pathogen-free conditions and were provided food and water ad libitum.
Lung injury was induced by double oropharyngeal instillation of Bleomycin hydrochloride (BLM, BAXTER) at day 0 and day 4 at the doses of 0.02 U/mouse in 50 μl of saline solution (0.9%). Control animals received double oropharyngeal instillation of 50 μl of saline solution.
Compound 19 was orally administered twice daily, starting on day 7 after the first oropharyngeal administration of bleomycin at the two doses of 400 and 600 mg/kg/day, 10 ml/kg, dissolved in 0.5% Tween 80, 0.5% Methylcellulose in H2O and treatment lasted for two weeks.
A group of animals was treated with Nintedanib esylate salt, at the dose of 60 mg/kg/day, 10 ml/kg, once daily, to compare the efficacy of the test compounds with an FDA approved drug for the treatment of IPF patients. Control mice were given vehicle-only over the same time intervals. Weight of all animals has been assessed twice a week starting from day 0 until day 21.
On days 21, mice were anesthetized by intraperitoneal injection of thiopental (200 mg/kg/10 ml; pentothal sodium, MSD Animal Health Srl). Blood was withdrawn by cardiac puncture and collected in heparine tubes. Plasma was obtained after centrifugation of blood at 10,000 g for 10 min. Lungs were lavage with saline solution through the heart, formalin fixed and paraffin embedded, and sections were stained with Masson's Trichrome to evaluate the grade and severity of fibrosis and collagen deposition.
Masson's Trichrome stained slides were also scanned with NanoZoomer S60 (Hamamatsu Photonics K.K., Shizuoka, Japan) and acquired into the Visiopharm Integrator System (VIS; version 2017.2.4.3387) for a quantification of pulmonary fibrosis by automated analysis with the support of a VIS Analysis Protocol Package (APP). The present APP has been designed to identify and then quantify the fibrotic tissue, detecting accumulation of altered connective tissue, excess of collagen deposition and cellular density.
To quantify lung protein content and the levels of specific proteins as markers of fibrosis and collagen deposition, lungs from subgroups of animals were weighted, homogenized in Phosphate buffer solution (PBS) and proteins of interest were quantified by immunometric or colorimetric assays. Hydroxyproline content was determined using the Hydroxyproline Colorimetric Assay Kit (Sigma MAK008, USA) according to the manufacturer's protocol. WISP-1, CollagenI, pro-CollagenI and Elastin were determined by Elisa kits. Protein quantification was performed using DC Protein Assay (Bio-Rad Laboratories, Italy). Plasma serine levels were measured using the DL-Serine Assay Kit (Abcam, Cambridge, MA).

[5] = tested on: alpha smooth muscle actin (α-SMA); assay: TGF-b induced α-SMA expression in NHLFs (Western blot); type: cell-based, Human; conditions: 50 uM; NHLF, TGF-β (10 ng/ml) 48 h
Description: The antifibrotic activity of compounds of the present invention has been monitored measuring the expression of fibrotic mediators, collagen I (Col-I) and alpha smooth muscle actin (α-SMA) after treatment in lung cells with TGF-β in comparison with Nintedanib (see Frank Hilberg et al, Cancer Res 2008 Jun. 15; 68(12):4774-82), and allosteric inhibitor NCT-503 (see Hamanaka et al., Am J Respir Cell Mol Biol. 2018 May; 58(5):585-593).
Human normal lung fibroblasts (NHLFs) were purchased from Lonza (Basel, Switzerland). NHFLs were cultured in Eagle's Minimum Essential medium (EMEM) w/o serine and glycine, supplemented with 10% Fetal Bovine Serum (FBS), antibiotics (50 U/ml penicillin and 0.05 mg/ml streptomycin) and 2 mM L-glutamine, in an atmosphere of 95% air and 5% CO2 at 37° C. NHLFs cultures were used between passage 1 and 9. Before all the experiments, cells were incubated overnight in serum-free medium.
NHLFs were seeded in 12-well plates at cultured until 70% of confluency. To examine the expression of fibrotic markers, cells were treated with different concentrations of Compounds and NCT-503 in EMEM medium for 1 h followed by stimulation with TGF-β for 48 h at 37° C., 5% CO2. Following cell treatments, medium was removed and whole cell extracts were prepared by directly adding to the well the 1× loading buffer (125 mM Tris-HCl pH 6.8, 4% SDS, 0.2% Orange G, 50% glycerol, 2.5% β-mercaptoethanol, Li-cor Biosciences), boiled for 5 min and then electrophoresed on Mini protean TGX gel 4-12% (Biorad). After electrophoresis, proteins were transferred to a nitrocellulose membrane. Immunodetection of Col-I, α-SMA and glyceraldeide 3-phosphate dehydrogenase (GAPDH) were obtained by using mouse anti-CollA1 (Santacruz), mouse anti-α-SMA (sigma) and rabbit anti-GAPDH (Cell Signaling Technology) all diluted at 1:1000 in TBS-tween 0.1%. […] Detection and quantification were performed with Odyssey imaging system (Li-cor) using GAPDH as loading control.

[6] = Plasma and brain exposure after the last dose in bleomycin model (Comparative Example 7); type: in vivo, mice; conditions: after the last oral dose; 0.5 h, 2 h and 7 h
Description: Plasma and tissue exposures of NCT-503 were determined as described in Example 2. The plasma and brain concentrations of NCT-503 were determined by a liquid chromatography-tandem mass spectrometry (LC/MS/MS) assay. Plasma or tissue homogenate samples (tissues were homogenized with a water/acetonitrile 50/50 mixture) were extracted with 3 volumes of acetonitrile. Supernanatant was injected into HPLC system (Agilent 1260 Quaternary Pump equipped with an Agilent 1200 High Performance Autosampler SL; Agilent), using a Kinetex EVO C18 analytical column (100 A, 50×2.1 mm, 2.6 μm; Phenomenex). The mobile phases consisted of 0.1% formic acid in water (solvent A) and 0.1% formic acid in acetonitrile (solvent B); chromatographic separation was performed with gradient elution method (0.0-0.5 min, 5% B; 0.5-4.0 min, gradient to 90% B; 4.0-5.5 min, 90% B; 5.5-7.0 min, gradient to 5% B; 7.0-11.0 min, 5% B—flow rate: 0.3 mL/min).
Mass spectrometric analysis was performed on a linear ion trap triple quadrupole mass spectrometer (4000 Q TRAP; AB SCIEX) equipped with a turbo spray ion source; mass spectrometer was operated in positive ion mode and quantification was achieved by multiple reaction monitoring (MRM) mode. Peak integration was performed using Analyst (version 1.6.2.). […]
Plasma and brain exposure of NCT-503 was determined following the last oral dose at three timepoints (0.5 h, 2 h and 7 h).

[7] = tested on: bleomycin-induced pulmonary fibrosis; conditions: treated mice 7 days after intratracheal instillation of bleomycin; cited from earlier work

**Q.** With Cn1c(C(=O)NC2(c3ccc(C(C(=O)O)C4CC4)cc3)CCOC2)cc2c(Cl)c(Cl)ccc21 (racemic) [Compound 15, (±)-2-Cyclopropyl-2-(4-(3-(4,5-dichloro-1-methyl-1H-indole-2-carbox-amido)tetrahydrofuran-3-yl)phenyl)acetic acid] as the compound, how does the IC50 ([1]; NHLF, 72 h incubation) read?
**A.** Its IC50 is 2000 nM.

**Q.** Which IC50 ([1]; NHLF, 72 h incubation) does the source give for Cn1c(C(=O)NC2(c3ccc(C(C(=O)O)C4CCCC4)cc3)CCOC2)cc2c(Cl)c(Cl)ccc21 (racemic) [Compound 16, (±)-2-cyclopentyl-2-{4-[3-(4,5-dichloro-1-methyl-1H-indole-2-amido)oxolan-3-yl]phenyl}acetic acid] here?
**A.** The IC50 was 501 nM.

**Q.** Which “reduction of Collagen I in BALF” value ([2]; Compound 19a 100 mg/Kg bid) does the source give for COC(=O)c1ccc2c(c1)NC(=O)/C2=C(\Nc1ccc(N(C)C(=O)CN2CCN(C)CC2)cc1)c1ccccc1 [Nintedanib, reference compound] here?
**A.** Its value is 56%.

**Q.** What about the “reduction of MMP-7 in BALF” value ([2]; Compound 19a 100 mg/Kg bid) of the same compound?
**A.** The value was 86%.

**Q.** What about the “reduction of SP-D levels in plasma” value ([2]; Compound 19a 100 mg/Kg bid) of the same compound?
**A.** The value was 87%.

**Q.** And the “improvement of FVC decline” value ([2]; Compound 19a 100 mg/kg bid, vs BLM/vehicle)?
**A.** The value was “similarly to Nintedanib”.

**Q.** What about the lung/body weight [3] of the same compound?
**A.** The lung/body weight was “do not induce reduction of lung/body weight”.

**Q.** And the “reduction of lung/body weight” value ([4]; Compound 19 highest dose (600 mg/kg/day), Nintedanib esylate 60 mg/kg/day, not significant)?
**A.** The value was −21%.

**Q.** And the “body weight during 2-weeks of treatment” value ([4]; compared to BLM/Vehicle treated group)?
**A.** The value was “did not lose additional weight”.

**Q.** And the “Ashcroft score (FIG. 11A)” value ([4]; day 21)?
**A.** Its value is “reduced”.

**Q.** What does the source list for Cc1cc(C)nc(NC(=S)N2CCN(Cc3ccc(C(F)(F)F)cc3)CC2)c1 [NCT-503]?
**A.** TGF-b induced a-sma (% inh. 50 uM) [5]: 93%; aSMA pIC50 ([1]; NHLF, 72 h incubation): >5.0; expression of aSMA (in words) ([1]; after 72 hours of incubation): partially reduces the expression of aSMA; fibrosis severity (FIG. 20B) ([3]; 100 mg/kg/day): not significant trend in reducing fibrosis severity; Ashcroft score analysis (FIG. 20A) ([3]; 100 mg/kg/day, compared to vehicle-treated mice): did not result in diminished Bleomycin-induced lung fibrosis; body weight ([3]; 200 mg/kg/day): did not show a significant worsening of the body weight; tolerability ([3]; 600 mg/kg/day (bid)): did not tolerate; survival ([3]; 600 mg/kg/day then 300 mg/kg/day once daily): 40%; weight loss compared to Day 0 ([3]; 600 mg/kg/day, 4 days of treatment): ~ 20%; lung/body weight [3]: do not induce reduction of lung/body weight; levels of pro-CollagenI and WISP-1 ([3]; lung homogenates): not affected; circulating serine levels (de novo serine synthesis) ([3]; plasma): did not induce inhibition of de novo serine synthesis; main brain/plasma ratio [6]: 2.4; attenuation of lung fibrosis [7]: preliminary efficacy in attenuation of lung fibrosis

**Q.** Which IC50 ([1]; NHLF, 72 h incubation) does the source give for CCC(C(=O)O)c1ccc(C2(NC(=O)c3cc4c(Cl)c(Cl)ccc4n3C)CCOC2)cc1 (racemic) [Compound 72, (±)-2-{4-[3-(4,5-dichloro-1-methyl-1H-indole-2-amido)oxolan-3-yl]phenyl}butanoic acid] here?
**A.** Its IC50 is 1260 nM.

**Q.** For COc1cc2c(cc(C(=O)NC3(c4ccc(C(C(=O)O)C(C)C)cc4)CCOC3)n2C)c(Cl)c1Cl (racemic) [Compound 20, (±)-2-{4-[3-(4,5-dichloro-6-methoxy-1-methyl-1H-indole-2-amido)oxolan-3-yl]phenyl}-3-methylbutanoic acid], which IC50 ([1]; NHLF, 72 h incubation) is on record?
**A.** Its IC50 is 1260 nM.
